From ChEMBL document CHEMBL1132933, “Protease inhibitors: synthesis and QSAR study of novel classes of nonbasic thrombin inhibitors incorporating sulfonylguanidine and O-methylsulfonylisourea moieties at P1” (J Med Chem, 2000)

How the values were obtained:
Trypsin = Trypsin (Homo sapiens, UniProt P07477+P07478+P35030); assay: Inhibitory activity against human trypsin (using Chromozym TH as the substrate); assay type: protein assay
Prothrombin = Prothrombin (Homo sapiens, UniProt P00734); assay: Inhibitory activity against human thrombin (using Chromozym TH as the substrate)

| SMILES | Ki (Trypsin) | Ki (Prothrombin) |
| --- | --- | --- |
| N=C(N)NNS(=O)(=O)c1c(Br)c(Br)c(Br)c(Br)c1C(=O)O | 1200 nM | 213 nM |
| COC(=N)NS(=O)(=O)c1cccc(C(=O)O)c1 | 1595 nM | 197 nM |
| N=C(N)NS(=O)(=O)c1c(F)c(F)c(F)c(F)c1F | 1350 nM | 146 nM |
| N=C(N)NNS(=O)(=O)c1ccc(Cl)cc1 | 1100 nM | 212 nM |
| Cc1ccc(S(=O)(=O)NC(=O)N[C@H](Cc2ccccc2)C(=O)Nc2ccc(S(=O)(=O)NN=C(N)N)cc2)cc1 | 1340 nM | 44 nM |
| Cc1ccc(S(=O)(=O)NC(=O)NCC(=O)N[C@@H](Cc2c[nH]cn2)C(=O)Nc2ccc(S(=O)(=O)NN=C(N)N)cc2)cc1 | 1555 nM | 15 nM |
| COC(=N)NS(=O)(=O)c1ccc(/N=N/c2ccc(N(C)C)cc2)cc1 | 1350 nM | 169 nM |
| COC(=N)NS(=O)(=O)c1cccs1 | 1350 nM | 213 nM |
| COc1ccc(S(=O)(=O)N=C(N)N)cc1N | 1080 nM | 103 nM |
| Cc1ccc(S(=O)(=O)NC(=O)N[C@@H](Cc2ccccc2)C(=O)N2CCCC2C(=O)Nc2ccc(S(=O)(=O)NN=C(N)N)cc2)cc1 (stereo not given in full) | 1450 nM | 10 nM |
| COC(=N)NS(=O)(=O)c1ccc(NC(C)=O)cc1 | 1345 nM | 202 nM |
| CC1(C)C2CCC1(CS(=O)(=O)N=C(N)N)C(=O)C2 (stereo not given) | 980 nM | 320 nM |
| CC(=O)Nc1ccc(S(=O)(=O)NN=C(N)N)cc1 | 1025 nM | 172 nM |
| CN(C)c1ccc(/N=N/c2ccc(S(=O)(=O)NN=C(N)N)cc2)cc1 | 1355 nM | 139 nM |
| COC(=N)NS(=O)(=O)N(C)C | 3300 nM | 1360 nM |
| N=C(N)NNS(=O)(=O)c1ccc(Br)cc1 | 1215 nM | 203 nM |
| COC(=N)NS(=O)(=O)c1ccc(NC(=O)C2CCCN2C(=O)[C@H](Cc2ccccc2)NC(=O)OCc2ccccc2)cc1 (stereo not given in full) | 1435 nM | 16 nM |
| COc1ccc(S(=O)(=O)NN=C(N)N)cc1 | 1275 nM | 227 nM |
| CN(C)c1ccc(/N=N/c2ccc(S(=O)(=O)N=C(N)N)cc2)cc1 | 1245 nM | 134 nM |

Next, values leading:

| Ki (Trypsin) | Ki (Prothrombin) | SMILES |
| --- | --- | --- |
| 1200 nM | 125 nM | N=C(N)NNS(=O)(=O)c1cccc2ccccc12 |
| 1900 nM | 450 nM | COC(=N)NS(=O)(=O)Cc1ccccc1 |
| 1170 nM | 225 nM | N=C(N)NS(=O)(=O)c1ccc(Cl)cc1 |
| 1460 nM | 276 nM | COC(=N)NS(=O)(=O)c1ccc(OC)cc1 |
| 1200 nM | 280 nM | COC(=N)NS(=O)(=O)c1ccc(F)cc1 |
| 1400 nM | 205 nM | N=C(N)NNS(=O)(=O)c1ccccc1C(=O)O |
| 1230 nM | 136 nM | N=C(N)NS(=O)(=O)c1cccc2ccccc12 |
| 1335 nM | 97 nM | N=C(N)NNS(=O)(=O)c1ccc(C(=O)O)cc1 |
| 975 nM | 180 nM | N=C(N)NS(=O)(=O)c1ccc([N+](=O)[O-])cc1 |
| 1425 nM | 91 nM | N=C(N)NNS(=O)(=O)c1ccc(N)cc1 |
| 1285 nM | 129 nM | N=C(N)NNS(=O)(=O)c1ccc2ccccc2c1 |
